Patent US10315996B2, “ROR gamma (RORγ) modulators” (LEAD PHARMA HOLDING B.V., priority 2015, dated 2019)

biological target: T1, RORγ (Homo sapiens, UniProt P51449); test: RORγ GAL4 reporter gene assay; assay type: cell-based; conditions: inhibition of RORγ activity, GAL4-RORγ-LBD luciferase reporter in 293FT cells, overnight incubation; read-out: mean pIC50 (converted)
T1 construct: expressed in transfected cells; host or cells: 293FT cells (Invitrogen), expression vector pFN26A (Promega)
T1 sequence (P51449 269-508 limits assumed): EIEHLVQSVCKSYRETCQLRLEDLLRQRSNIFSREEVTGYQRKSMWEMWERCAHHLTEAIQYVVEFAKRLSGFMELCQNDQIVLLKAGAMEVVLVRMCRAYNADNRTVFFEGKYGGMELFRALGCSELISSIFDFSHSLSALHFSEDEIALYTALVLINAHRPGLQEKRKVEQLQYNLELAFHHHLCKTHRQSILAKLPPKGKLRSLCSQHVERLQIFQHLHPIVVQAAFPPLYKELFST
Protocol: Example inhibitors 1-166 were tested for their ability to inhibit RORγ activity in a RORγ GAL4 reporter gene assay. The assay procedure and results are described below.
RORγ GAL4 Reporter Gene Assay Description
A GAL4 one-hybrid reporter system employing luciferase readout was established to determine inhibition of RORγ in 293FT cells. The RORγ ligand-binding domain (LBD) was fused to the yeast GAL4 DNA binding domain (DBD) and placed under the control of the human cytomegalovirus (CMV) immediate early promoter, using expression vector pFN26A (Promega) and standard recombinant DNA cloning methods. To serve as a control in the assay, a similar vector was generated in which the GAL4-DBD was fused to Herpes simplex virus protein 16 (VP16), a constitutive transcriptional activator.
To monitor the inhibitory effect of compounds on RORγ, a transcriptional reporter construct was used. The pGL4.35 vector (Promega) contains nine copies of the GAL4 Upstream Activator Sequence (UAS). This sequence drives the transcription of the luciferase reporter gene luc2P in response to binding of a fusion protein containing the GAL4 DNA binding domain, as for example expressed by the GAL4-RORγ-LBD and GAL4-VP16 expression vectors described above. To allow a GAL4 fusion protein to drive the expression of the luciferase reporter, the pGL4.35 expression vector and the appropriate GAL4 fusion protein expression vector were bulk transfected in the 293FT cells using standard transfection techniques.
The day after transfection, cells were plated into 96 well plates, test compound was added and the plates were incubated overnight. Subsequently, the firefly luciferase activity was quantified using luciferase detection reagent and luminescence readout.
Detailed Assay Description
293FT cells (Invitrogen) were transfected with a GAL4 fusion protein expression vector (as described above) and the transcriptional reporter construct (pGL4.35, Promega). 60 μL of TransIT-293 transfection reagent (Mirus Bio) was added drop wise to 1500 μl Opti-MEM I Reduced Serum Medium (Invitrogen) and incubated at room temperature (RT) for 5 to 20 minutes. 1500 μL of this reagent mixture was added to 5 μg of GAL4 fusion protein expression vector and 5 μg of the transcriptional reporter construct, and incubated at RT for 20 minutes.
To harvest 293FT cells from a T75 flask, first the culture medium was taken off the cells. Subsequently, the cells were washed with Phosphate Buffered Saline (PBS) (Lonza), after which the PBS was removed. To dissociate the cells, 1 ml of TrypLE Express (Invitrogen) was added to the flask, followed by incubation at RT until the cells visually started to detach. Cells were collected in 5 mL of assay medium (DMEM culture medium (Lonza), 10% dialyzed FBS (Invitrogen) and Pen/Strep (Lonza)) to achieve a single cell suspension. 10×10^6 cells were spun down and re-suspended in 10 mL of assay medium. Subsequently, the cell suspension was added to the transfection mix tube, and then transferred as a whole to a T75 flask (Greiner), followed by overnight (16-24 hours) incubation at 37° C. and 5% CO2.
For compound screening, the cells were harvested (as described above) and counted. 13×10^6 cells were spun down, the supernatant was aspirated and the cells were re-suspended in 17.3 mL of assay medium obtaining a cell suspension of 0.75×10^6 cells/mL. 80 μL of cell suspension (60,000 cells) was plated per well into a white, flat bottom, tissue culture treated, 96 well screening plates (Greiner).
Test compounds were diluted, starting from a 10 mM dimethylsulfoxide (DMSO) stock solution, to serial dilutions in DMSO at 500× the final test concentration. Subsequently, these solutions were diluted to 5× the final test concentration in two 10-fold-dilution steps in assay medium. The final DMSO concentration of the 5× test compound solution was 1%. […]

Row | Compound | IC50
1 | CCOC(=O)CN(Cc1ccccc1)C(=O)c1ccc(NC(=O)Cc2ccc(S(=O)(=O)CC3CC3)cc2)cc1 [Example 32, ethyl 2-(N-benzyl-1-{4-[2-(4-cyclopropylmethanesulfonylphenyl)acetamido]phenyl}formamido)acetate] | ≤ 10 nM
2 | CCOC(=O)c1cc2c(s1)CN(C(=O)c1ccc(NC(=O)Cc3ccc(S(=O)(=O)CC4CC4)cc3)cc1)CC2 [Example 33, ethyl 6-{4-[2-(4-cyclopropylmethanesulfonylphenyl)acetamido]benzoyl}-4H,5H,6H,7H-thieno[2,3-c]pyridine-2-carboxylate] | ≤ 1000 nM
3 | CN(C(=O)c1ccc(NC(=O)Cc2ccc(S(=O)(=O)CC3CC3)cc2)cc1)C1CCCCC1 [Example 34, N-cyclohexyl-4-[2-(4-cyclopropylmethanesulfonylphenyl)acetamido]-N-methylbenzamide] | ≤ 1000 nM
4 | O=C(Cc1ccc(S(=O)(=O)CC2CC2)cc1)Nc1ccc(C(=O)N2CCc3ccccc32)cc1 [Example 41, 2-(4-cyclopropylmethanesulfonylphenyl)-N-[4-(2,3-dihydro-1H-indole-1-carbonyl)phenyl]acetamide] | ≤ 1000 nM
5 | CCN(C(=O)c1ccc(NC(=O)Cc2ccc(S(=O)(=O)NC3CC3)cc2)cc1)c1ccccc1 [Example 43, 4-{2-[4-(cyclopropylsulfamoyl)phenyl]acetamido}-N-ethyl-N-phenylbenzamide] | ≤ 10 nM
6 | CCN(C(=O)c1ccc(NC(=O)Cc2ccc(S(=O)(=O)NC3CC3)cc2)cc1)c1cccc(C(=O)OC)c1 [Example 47, methyl 3-(N-ethyl-4-{2-[4-(cyclopropylsulfamoyl)phenyl]acetamido}benzamido) benzoate] | ≤ 100 nM
7 | CCN(C(=O)c1ccc(NC(=O)Cc2ccc(S(=O)(=O)NC3CC3)cc2)cc1)c1cccnc1 [Example 50, 4-{2-[4-(cyclopropylsulfamoyl)phenyl]acetamido}-N-ethyl-N-(pyridin-3-yl)benzamide] | ≤ 1000 nM
8 | CCN(C(=O)c1ccc(NC(=O)Cc2ccc(S(=O)(=O)CC3CC3)cc2)nc1)c1ccccc1 [Example 51, 6-[2-(4-cyclopropylmethanesulfonylphenyl)acetamido]-N-ethyl-N-phenylpyridine-3-carboxamide] | ≤ 100 nM
9 | CCN(C(=O)c1ccc(NC(=O)Cc2ccc(S(=O)(=O)NC3CC3)cc2)nc1)c1ccccc1 [Example 54, 6-{2-[4-(cyclopropylsulfamoyl)phenyl]acetamido}-N-ethyl-N-phenylpyridine-3-carboxamide] | ≤ 1000 nM
10 | CCN(Cc1cc(C)on1)C(=O)c1ccc(NC(=O)Cc2ccc(S(=O)(=O)CC3CC3)cc2)cc1 [Example 56, 4-[2-(4-cyclopropylmethanesulfonylphenyl)acetamido]-N-ethyl-N-[(5-methyl-1,2-oxazol-3-yl)methyl]benzamide] | ≤ 100 nM
11 | CN1CCN(C(=O)c2ccc(NC(=O)Cc3ccc(S(=O)(=O)CC4CC4)cc3)cc2)C(c2ccccc2)C1 (centres unmarked) [Example 57, 2-(4-cyclopropylmethanesulfonylphenyl)-N-[4-(4-methyl-2-phenylpiperazine-1-carbonyl)phenyl]acetamide] | ≤ 100 nM
12 | CCN(C(=O)c1ccc(NC(=O)Cc2ccc(S(=O)(=O)CC3CC3)cc2)cc1OC)c1ccccc1 [Example 58, 4-[2-(4-cyclopropylmethanesulfonylphenyl)acetamido]-N-ethyl-2-methoxy-N-phenylbenzamide] | ≤ 100 nM

Next, values leading:

Row | IC50 | Compound
13 | ≤ 100 nM | O=C(Cc1ccc(S(=O)(=O)CC2CC2)cc1)Nc1ccc(C(=O)N2CCCC2c2ccccc2)cc1 (centres unmarked) [Example 35, 2-(4-cyclopropylmethanesulfonylphenyl)-N-[4-(2-phenylpyrrolidine-1-carbonyl)phenyl]acetamide]
14 | ≤ 1000 nM | O=C(Cc1ccc(S(=O)(=O)CC2CC2)cc1)Nc1ccc(C(=O)N2CCCCC2)cc1 [Example 36, 2-(4-cyclopropylmethanesulfonylphenyl)-N-[4-(piperidine-1-carbonyl)phenyl]acetamide]
15 | ≤ 10 nM | CC(C)CN(C(=O)c1ccc(NC(=O)Cc2ccc(S(=O)(=O)CC3CC3)cc2)cc1)c1ccccc1 [Example 37, 4-[2-(4-cyclopropylmethanesulfonylphenyl)acetamido]-N-(2-methylpropyl)-N-phenylbenzamide]
16 | ≤ 1000 nM | CCOC(=O)c1csc(C2CCCN2C(=O)c2ccc(NC(=O)Cc3ccc(S(=O)(=O)CC4CC4)cc3)cc2)n1 (centres unmarked) [Example 38, ethyl 2-(1-{4-[2-(4-cyclopropylmethanesulfonylphenyl)acetamido]benzoyl}pyrrolidin-2-yl)-1,3-thiazole-4-carboxylate]
17 | ≤ 1000 nM | O=C(Cc1ccc(S(=O)(=O)CC2CC2)cc1)Nc1ccc(C(=O)N2CCCCC2CN2CCOCC2)cc1 (centres unmarked) [Example 39, 2-(4-cyclopropylmethanesulfonylphenyl)-N-{4-[2-(morpholin-4-ylmethyl)piperidine-1-carbonyl]phenyl}acetamide]
18 | ≤ 10 nM | O=C(Cc1ccc(S(=O)(=O)CC2CC2)cc1)Nc1ccc(C(=O)N2CCCc3ccccc32)cc1 [Example 40, 2-(4-cyclopropylmethanesulfonylphenyl)-N-[4-(1,2,3,4-tetrahydroquinoline-1-carbonyl)phenyl]acetamide]
19 | ≤ 100 nM | CCN(Cc1ccccc1)C(=O)c1ccc(NC(=O)Cc2ccc(S(=O)(=O)CC3CC3)cc2)cc1 [Example 42, N-benzyl-4-[2-(4-cyclopropylmethanesulfonylphenyl)acetamido]-N-ethylbenzamide]
20 | ≤ 100 nM | CN(C(=O)c1ccc(NC(=O)Cc2ccc(S(=O)(=O)NC3CC3)cc2)cc1)c1ccccc1 [Example 44, 4-{2-[4-(cyclopropylsulfamoyl)phenyl]acetamido}-N-methyl-N-phenylbenzamide]
21 | ≤ 10 nM | CCN(C(=O)c1ccc(NC(=O)Cc2ccc(S(=O)(=O)NC3CC3)cc2)cc1)c1cccc(C)c1 [Example 46, 4-{2-[4-(cyclopropylsulfamoyl)phenyl]acetamido}-N-ethyl-N-(3-methylphenyl) benzamide]
22 | ≤ 100 nM | O=C(Cc1ccc(S(=O)(=O)CC2CC2)cc1)Nc1ccc(C(=O)N2CCCC(c3ccccc3)C2)cc1 (centres unmarked) [Example 48, 2-(4-cyclopropylmethanesulfonylphenyl)-N-[4-(3-phenylpiperidine-1-carbonyl)phenyl]acetamide]
23 | ≤ 10 nM | O=C(Cc1ccc(S(=O)(=O)CC2CC2)cc1)Nc1ccc(C(=O)N2CCCCC2c2ccccc2)cc1 (centres unmarked) [Example 49, 2-(4-cyclopropylmethanesulfonylphenyl)-N-[4-(2-phenylpiperidine-1-carbonyl)phenyl]acetamide]
24 | ≤ 100 nM | CCN(C(=O)c1ccc(NC(=O)Cc2ccc(S(=O)(=O)CC3CC3)cc2)cc1)c1cccnc1 [Example 52, 4-[2-(4-cyclopropylmethanesulfonylphenyl)acetamido]-N-ethyl-N-(pyridin-3-yl) benzamide]
25 | ≤ 100 nM | CCN(C(=O)c1ccc(NC(=O)Cc2ccc(S(=O)(=O)CC3CC3)cc2)c(Cl)c1)c1ccccc1 [Example 53, 3-chloro-4-[2-(4-cyclopropylmethanesulfonylphenyl)acetamido]-N-ethyl-N-phenylbenzamide]
26 | ≤ 100 nM | O=C(Cc1ccc(S(=O)(=O)CC2CC2)cc1)Nc1ccc(C(=O)N2CCc3ccccc3C2)cc1 [Example 55, 2-(4-cyclopropylmethanesulfonylphenyl)-N-[4-(1,2,3,4-tetrahydroisoquinoline-2-carbonyl)phenyl]acetamide]
